Experimental data from US8088366B2, “Attractant for Indian meal moth larve” (The United States of America, as represented by the …, priority 2009, dated 2012).

Columns and labels:
[1] = test system: Plodia interpunctella larvae (0.6 mg penultimate instar to mid-last instar); assay: Bioassay chamber choice test of larval attraction, older larvae (early penultimate, newly molted last and mid-last instar); format: in vivo
Text: (§1) To isolate the attractant, the inventors bioassayed multiple materials that potentially comprised effective attractants. The bioassay chamber 10 was comprised of a Lincoln Wear-Ever (Fort Wayne, Ind.) baking pan (No. 9002) having the dimensions of 65 cm long, 45 cm wide and 2.5 cm high. A similarly sized Carb-x plastic top 12 (Rubbermaid Commercial Products Inc., Winchester, Va.) was modified for this application. (Note that FIG. 1 is a (top) plan view so that only the Carb-x plastic top 12 of the bioassay chamber is shown.)
The rows of three holes were ˜8 cm from the outer edge at the ends and ˜10 cm from the outer edge on the two sides, which spaced the three holes ˜12.5 cm apart, center to center. A 3.0 cm diameter hole 16 was drilled in the center of the top 12 to accept a bulkhead fitting 18 (# 16422, United States Plastic Corp., Lima, Ohio) complete with a right angle connection and a serrated vacuum hose 20. During the bioassay process, air was drawn into the chamber 10 through the six air inlet holes 14 and removed from the chamber 10 through the fitting 18 and vacuum hose 20 in the direction of the arrow 22.
Before each bioassay, the chambers 10 were washed with a dilute solution of Micro-90 detergent (International Products Corp, Burlington, N.J.), rinsed 3 times with tap water, 1 time with distilled water, 1 time with MeOH and air dried. Test samples were placed in flat polypropylene weigh boats. An individual sample was positioned at each end of the chamber 10 under the middle air inlets.
The six air inlet holes 14 were fitted with syringe ports (Part # MTL230-6, Value Plastics, Inc., Fort Collins, Colo.) and six 10 cc syringes 24 filled with activated charcoal were affixed. Low-density foam weather strip (6.3 mm thick×12.7 mm wide, not shown in FIG. 1) was attached along the four edges of the top 12 to form an airtight seal when placed on the bottom pan and tightened together with four Sparco Binder Clips, # 87010 (2″ wide, 1″ capacity) 26. A vacuum means (not shown) was attached to the vacuum hose 20 was adjusted to give an exit flow of ˜53 cc/min or one chamber volume (˜2.41) exchange every 45 min during the bioassay.
In addition to neonates, three other age groups of larvae were selected from the standardized cultures for bioassay to determine if they were attracted to the wheat grain and its components. These groups included newly molted penultimate instar (0.6±0.1 mg), newly molted last instar (3.2±0.2 mg) and mid-last instar (7.8±0.8 mg) (see Silhacek and Miller, 1972). In these assays, 10 larvae of the specified age, stage and weight range were transferred to the 16 mm sample cup at the beginning of the scotophase and immediately placed at the release point in the equilibrated bioassay chamber. The cover was secured to the chamber bottom and the larvae were given three hours to select the sample of choice and then the larvae on each sample were counted.
In the first set of tests, the relative attractiveness of the three major, commercially available kernel tissue fractions of wheat were assessed. The tissues were crude bran (Flint River Mills, Bainbridge, Ga.), Kretschmer's toasted wheat germ (Quaker Oats Co., Chicago, Ill.) and endosperm (organically grown, unbleached, unenriched all-purpose flour, Wards Super Market, Gainesville, Fla.).
The attractiveness of whole kernel wheat volatiles was examined by suspending a packet of whole wheat in the air stream entering the bioassay chamber over a sample of NASE. […]

[2] = test system: Plodia interpunctella neonatal larvae; assay: Bioassay chamber choice test of larval attraction, neonatal larvae; format: in vivo; details: serially diluted, bioassayed over the range of 16 pg to 500 pg on 3MM pad; FIGS. 7 and 8
Text: as §1
The rows of three holes were ˜8 cm from the outer edge at the ends and ˜10 cm from the outer edge on the two sides, which spaced the three holes ˜12.5 cm apart, center to center. […]
Plodia larvae used in this study were reared on a standardized Plodia diet (Silhacek and Miller, 1972) at 30° C., 70% r.h. and a 16L:8D photoperiod as described previously (Silhacek et al, 2003) using eggs collected over a 1 h interval during the 2 h period preceding the scotophase. […] The samples were then removed, mixed with Plodia diet and the larvae counted after two days of additional growth.
In the first set of tests, the relative attractiveness of the three major, commercially available kernel tissue fractions of wheat were assessed. […]

Row | SMILES | attraction of older larvae at 31 pg ([1]; 31 pg on 3MM scintillation pad, three older age groups) | attraction of older larvae at 250-500 pg ([1]; 250-500 pg, some larvae captured in non-attractive NASE sample) | attraction of all larval stages when bioassayed ([1]; all larval stages of Plodia) | amount range of peak attraction of older larvae ([1]; three older age groups, amount on 3MM pad) [pg] | larval attraction by stage of development ([1]; through the middle (7.0-8.5 mg) of the final larval instar) | attractancy to neonates [2]
1 | CCCCCc1ccco1 [2-pentyl furan] | Moderate but not significant attraction | Strong attraction | attracted to picogram quantities | 62.5 to 125 | strong | attractive at all levels tested between 32 and 500 pg
2 | CCCCCC=O [Hexanal, reference compound] | – | – | – | – | – | not attractive
